Measured values as given in US20250145665A1, “MACROCYCLIC PEPTIDES USEFUL AS MODULATORS OF TNF ALPHA” (Bristol-Myers Squibb Company, priority 2023, published 2025).
Starred links: 1 amine or outer side, 2 acyl side, 3 side chain; linkers in the order of their positions; H or OH if unused. Positions of bridges follow the written chain, without caps; N, C: chain ends. Non-standard residues stand in square brackets, D forms with d. Residues, ends and D or L forms follow the SMILES beside them. ξ: configuration not given here. *: point of attachment. Bip(4'-NHCO-C6H4-4-CH2COOH) = N[C@@H](Cc1ccc(-c2ccc(NC(=O)c3ccc(CC(=O)O)cc3)cc2)cc1)C(=O)O; X5 = Cn1nc(C(=O)Nc2ccc(-c3ccc(C[C@H](N[*:1])C(=O)[*:2])cc3)cc2)c2ccccc21; Bip(4'-NH) = O=C([C@H](Cc1ccc(-c2ccc(N[*:3])cc2)cc1)N[*:1])[*:2]; dArg(ω-(3-HO-benzyl)) = N=C(NCCC[C@@H](N)C(=O)O)NCc1cccc(O)c1; Indazole3carbonyl(1-CH2COOH) = O=C(O)Cn1nc(C(=O)*)c2ccccc21; Bip(4'-COOH) = N[C@@H](Cc1ccc(-c2ccc(C(=O)O)cc2)cc1)C(=O)O; Bip(4'-NHAc) = CC(=O)Nc1ccc(-c2ccc(C[C@H](N)C(=O)O)cc2)cc1; Indole3carbonyl(1-CH2COOH) = O=C(O)Cn1cc(C(=O)*)c2ccccc21; X27 = N=C(NCCC[C@@H](N[*:1])C(=O)[*:2])NCCc1ccc2c(c1)OCO2; X83 = N=C(NCCC[C@@H](N[*:1])C(=O)[*:2])NCCc1ccc(O)c(O)c1; Ala(imidazol-2-yl) = N[C@@H](Cc1ncc[nH]1)C(=O)O; dArg(ω-Bn) = N=C(NCCC[C@@H](N)C(=O)O)NCc1ccccc1; Ala(morpholin-4-yl) = N[C@@H](CN1CCOCC1)C(=O)O; Bip = N[C@@H](Cc1ccc(-c2ccccc2)cc1)C(=O)O; Ala(4-THP) = N[C@@H](CC1CCOCC1)C(=O)O; X86 = O=C(O)Cn1ccc2cc(C(=O)*)ccc21; NMeF = CN[C@@H](Cc1ccccc1)C(=O)O; 2Pal = N[C@@H](Cc1ccccn1)C(=O)O; 4Pal = N[C@@H](Cc1ccncc1)C(=O)O; Tic = O=C(O)[C@@H]1Cc2ccccc2CN1; Cha = N[C@@H](CC1CCCCC1)C(=O)O; Tle = CC(C)(C)[C@H](N)C(=O)O; Aze = O=C(O)[C@@H]1CCN1; ξP = O=C(O)C1CCCN1; Sar = CNCC(=O)O

Molecular target: TNFα (Homo sapiens, UniProt P01375)
Sequence (P01375 77-233 limits assumed): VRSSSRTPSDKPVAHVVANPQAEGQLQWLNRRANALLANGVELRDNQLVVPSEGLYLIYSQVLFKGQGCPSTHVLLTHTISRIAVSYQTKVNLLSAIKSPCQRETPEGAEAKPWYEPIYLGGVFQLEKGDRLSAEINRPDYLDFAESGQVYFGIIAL
Assay: TNF-Induced HEK-Blue Assay
Assay type: cell-based
Conditions: not given

Compound | IC50
CC(C)C[C@@H]1NC(=O)[C@H](CCCNC(=N)N)NC(=O)[C@H](C(C)C)NC(=O)C2CCCN2C(=O)[C@H](C(C)C)NC(=O)[C@@H](CCCNC(=N)NCCc2ccc(O)c(O)c2)NC(=O)[C@H](CC(=O)O)NC(=O)[C@@H]2CCCN2C(=O)CN(C)C(=O)[C@H](Cc2ccc(-c3ccc(NC(=O)c4nn(CC(=O)O)c5ccccc45)cc3)cc2)NC(=O)[C@H](Cc2ccc(-c3ccccc3)cc2)NC(=O)[C@H](CN2CCOCC2)NC(=O)CSC[C@@H](C(=O)NCC(N)=O)NC1=O (stereo partly drawn) [Example 410] ({CH2CO}-[Ala(morpholin-4-yl)][Bip][Bip(4'-NH)](Indazole3carbonyl(1-CH2COOH))[Sar]PD[X83]V[ξP]VRLCG-NH2; thioether N-13) | 0.2 to 2 µM
CC(C)C[C@@H]1NC(=O)[C@H](Cc2ncc[nH]2)NC(=O)[C@H](C(C)C)NC(=O)[C@@H]2CCCN2C(=O)[C@H](C(C)C)NC(=O)[C@@H](CCCNC(=N)NCc2cccc(O)c2)NC(=O)[C@H](CC(=O)O)NC(=O)[C@H](Cc2ccccn2)NC(=O)CN(C)C(=O)[C@H](Cc2ccc(-c3ccc(NC(=O)c4cn(CC(=O)O)c5ccccc45)cc3)cc2)NC(=O)[C@H](Cc2ccc(-c3ccc(C(=O)O)cc3)cc2)NC(=O)[C@H](CC2CCCCC2)NC(=O)CSC[C@@H](C(=O)NCC(N)=O)NC1=O [Example 552] ({CH2CO}-[Cha][Bip(4'-COOH)][Bip(4'-NH)](Indole3carbonyl(1-CH2COOH))[Sar][2Pal]D[dArg(ω-(3-HO-benzyl))]VPV[Ala(imidazol-2-yl)]LCG-NH2; thioether N-13) | 0.05 to 0.2 µM
CC(C)C[C@@H]1NC(=O)[C@H](Cc2ccccn2)NC(=O)[C@H](C(C)C)NC(=O)[C@@H]2CCCN2C(=O)[C@H](C(C)C)NC(=O)[C@@H](CCCNC(=N)N)NC(=O)[C@H](CC(=O)O)NC(=O)[C@H](Cc2ccc(O)cc2)NC(=O)CN(C)C(=O)[C@H](Cc2ccc(-c3ccc(NC(=O)c4nn(CC(=O)O)c5ccccc45)cc3)cc2)NC(=O)[C@H](Cc2ccc(-c3ccc(C(=O)O)cc3)cc2)NC(=O)[C@H](CC2CCCCC2)NC(=O)CSC[C@@H](C(=O)NCC(N)=O)NC1=O [Example 362] ({CH2CO}-[Cha][Bip(4'-COOH)][Bip(4'-NH)](Indazole3carbonyl(1-CH2COOH))[Sar]YD[dR]VPV[2Pal]LCG-NH2; thioether N-13) | < 0.05 µM
CC(C)C[C@@H]1NC(=O)[C@H](Cc2cnc[nH]2)NC(=O)[C@H](C(C)C)NC(=O)[C@@H]2CCCN2C(=O)[C@H](C(C)C)NC(=O)[C@@H](CCCNC(=N)NCc2ccccc2)NC(=O)[C@H](CC(=O)O)NC(=O)[C@H](Cc2ccccn2)NC(=O)CN(C)C(=O)[C@H](Cc2ccc(-c3ccc(NC(=O)c4cn(CC(=O)O)c5ccccc45)cc3)cc2)NC(=O)[C@H](Cc2ccc(-c3ccccc3)cc2)NC(=O)[C@H](CN2CCOCC2)NC(=O)CSC[C@@H](C(=O)NCC(N)=O)NC1=O [Example 629] ({CH2CO}-[Ala(morpholin-4-yl)][Bip][Bip(4'-NH)](Indole3carbonyl(1-CH2COOH))[Sar][2Pal]D[dArg(ω-Bn)]VPVHLCG-NH2; thioether N-13) | 0.05 to 0.2 µM
CC(C)C[C@@H]1NC(=O)[C@H](CCCNC(=N)N)NC(=O)[C@H](C(C)C)NC(=O)[C@@H]2CCCN2C(=O)[C@H](C(C)C)NC(=O)[C@@H](CCCNC(=N)NCCc2ccc3c(c2)OCO3)NC(=O)[C@H](CC(=O)O)NC(=O)[C@@H]2CCCN2C(=O)CN(C)C(=O)[C@H](Cc2ccc(-c3ccc(NC(=O)c4nn(CC(=O)O)c5ccccc45)cc3)cc2)NC(=O)[C@H](Cc2ccc(-c3ccccc3)cc2)NC(=O)[C@H](CN2CCOCC2)NC(=O)CSC[C@@H](C(=O)NCC(N)=O)NC1=O [Example 408] ({CH2CO}-[Ala(morpholin-4-yl)][Bip][Bip(4'-NH)](Indazole3carbonyl(1-CH2COOH))[Sar]PD[X27]VPVRLCG-NH2; thioether N-13) | < 0.05 µM

Same assay, conditions: HEK-Blue-CD40L cells, NF-kB-driven secreted alkaline phosphatase reporter; TNFα 0.5 ng/ml; 18 h; read-out: TNF induced HEK-Blue assay IC50 value

Compound | IC50
CC(C)C[C@@H]1NC(=O)[C@H](Cc2ccc(O)cc2)NC(=O)[C@H](C(C)C)NC(=O)[C@@H]2CCCN2C(=O)[C@H](C(C)C)NC(=O)[C@@H](CCCNC(=N)N)NC(=O)[C@H](CC(=O)O)NC(=O)[C@H](Cc2ccc(O)cc2)NC(=O)CN(C)C(=O)[C@H](Cc2ccc(-c3ccccc3)cc2)NC(=O)[C@H](Cc2ccc(-c3ccccc3)cc2)NC(=O)[C@H](CN2CCOCC2)NC(=O)CSC[C@@H](C(=O)NCC(N)=O)NC1=O [Example 68] ({CH2CO}-[Ala(morpholin-4-yl)][Bip][Bip][Sar]YD[dR]VPVYLCG-NH2; thioether N-13) | < 0.05 µM
CC(C)C[C@@H]1NC(=O)[C@H](CCCNC(=N)N)NC(=O)[C@H](C(C)C)NC(=O)[C@@H]2CCCN2C(=O)[C@H](C(C)C)NC(=O)[C@H](CCCNC(=N)N)NC(=O)[C@H](CC(=O)O)NC(=O)[C@@H]2CCCN2C(=O)CN(C)C(=O)[C@H](Cc2ccc(-c3ccccc3)cc2)NC(=O)[C@H](Cc2ccc(-c3ccccc3)cc2)NC(=O)[C@H](Cc2ccncc2)NC(=O)CSC[C@@H](C(=O)NCC(N)=O)NC1=O [Example 11] ({CH2CO}-[4Pal][Bip][Bip][Sar]PDRVPVRLCG-NH2; thioether N-13) | 0.2 to 2 µM
CC(C)C[C@@H]1NC(=O)[C@H](CCCNC(=N)N)NC(=O)[C@H](C(C)C)NC(=O)[C@@H]2CCCN2C(=O)[C@H](C(C)C)NC(=O)[C@@H](CCCNC(=N)N)NC(=O)[C@H](CC(=O)O)NC(=O)[C@@H]2CCCN2C(=O)CN(C)C(=O)[C@H](Cc2ccc(-c3ccc(NC(=O)c4nn(C)c5ccccc45)cc3)cc2)NC(=O)[C@H](Cc2ccc(-c3ccccc3)cc2)NC(=O)[C@H](CC2CCOCC2)NC(=O)CSC[C@@H](C(=O)NCC(N)=O)NC1=O [Example 304] ({CH2CO}-[Ala(4-THP)][Bip][X5][Sar]PD[dR]VPVRLCG-NH2; thioether N-13) | < 0.05 µM
CC(C)C[C@@H]1NC(=O)[C@H](Cc2ccc(O)cc2)NC(=O)[C@H](C(C)C)NC(=O)CNC(=O)[C@H](C(C)C)NC(=O)[C@H](CCCNC(=N)N)NC(=O)[C@H](CC(=O)O)NC(=O)[C@@H]2CCCN2C(=O)CN(C)C(=O)[C@H](Cc2ccc(-c3ccccc3)cc2)NC(=O)[C@H](Cc2ccc(-c3ccccc3)cc2)NC(=O)[C@H](CN2CCOCC2)NC(=O)CSC[C@@H](C(=O)NCC(N)=O)NC1=O [Example 139] ({CH2CO}-[Ala(morpholin-4-yl)][Bip][Bip][Sar]PDRVGVYLCG-NH2; thioether N-13) | 0.2 to 2 µM

The remaining lines, values ahead:

IC50 | Compound
< 0.05 µM | CC(C)C[C@@H]1NC(=O)[C@H](CCCNC(=N)N)NC(=O)[C@H](C(C)C)NC(=O)[C@@H]2CCCN2C(=O)[C@H](C(C)C)NC(=O)[C@@H](CCCNC(=N)N)NC(=O)[C@H](CC(=O)O)NC(=O)[C@@H]2CCCN2C(=O)CN(C)C(=O)[C@H](Cc2ccc(-c3ccc(NC(=O)c4ccc5c(ccn5CC(=O)O)c4)cc3)cc2)NC(=O)[C@H](Cc2ccc(-c3ccccc3)cc2)NC(=O)[C@H](CN2CCOCC2)NC(=O)CSC[C@@H](C(=O)NCC(N)=O)NC1=O [Example 398] ({CH2CO}-[Ala(morpholin-4-yl)][Bip][Bip(4'-NH)](X86)[Sar]PD[dR]VPVRLCG-NH2; thioether N-13)
0.05 to 0.2 µM | CC(C)C[C@@H]1NC(=O)[C@H](CCCNC(=N)N)NC(=O)[C@H](C(C)C)NC(=O)[C@@H]2CCCN2C(=O)[C@H](C(C)C)NC(=O)[C@@H](CCCNC(=N)N)NC(=O)[C@H](CC(=O)O)NC(=O)[C@H](Cc2cnc[nH]2)NC(=O)CN(C)C(=O)[C@H](Cc2ccc(-c3ccccc3)cc2)NC(=O)[C@H](Cc2ccc(-c3ccccc3)cc2)NC(=O)[C@H](CN2CCOCC2)NC(=O)CSC[C@@H](C(=O)NCC(N)=O)NC1=O [Example 229] ({CH2CO}-[Ala(morpholin-4-yl)][Bip][Bip][Sar]HD[dR]VPVRLCG-NH2; thioether N-13)
< 0.05 µM | CC[C@H](C)[C@@H]1NC(=O)[C@@H](CCCNC(=N)NCc2cccc(O)c2)NC(=O)[C@H](CC(=O)O)NC(=O)[C@H](Cc2cnc[nH]2)NC(=O)CN(C)C(=O)[C@H](Cc2ccc(-c3ccc(NC(=O)c4ccc(CC(=O)O)cc4)cc3)cc2)NC(=O)[C@H](Cc2ccc(-c3ccc(C(=O)O)cc3)cc2)NC(=O)[C@H](CC2CCCCC2)NC(=O)CSC[C@@H](C(=O)NCC(N)=O)NC(=O)[C@H](CC(C)C)NC(=O)[C@H](Cc2ncc[nH]2)NC(=O)[C@H](C(C)C)NC(=O)[C@@H]2Cc3ccccc3CN2C1=O [Example 563] ({CH2CO}-[Cha][Bip(4'-COOH)][Bip(4'-NHCO-C6H4-4-CH2COOH)][Sar]HD[dArg(ω-(3-HO-benzyl))]I[Tic]V[Ala(imidazol-2-yl)]LCG-NH2; thioether N-13)
0.05 to 0.2 µM | CC(=O)Nc1ccc(-c2ccc(C[C@@H]3NC(=O)[C@H](Cc4ccc(-c5ccc(C(=O)O)cc5)cc4)NC(=O)[C@H](CN4CCOCC4)NC(=O)CSC[C@@H](C(=O)NCC(N)=O)NC(=O)[C@H](CC(C)C)NC(=O)[C@H](Cc4ccccn4)NC(=O)[C@H](C(C)C)NC(=O)[C@@H]4CCN4C(=O)[C@H](C(C)C)NC(=O)[C@@H](CCCNC(=N)N)NC(=O)[C@H](CC(=O)O)NC(=O)[C@H](Cc4ccccn4)NC(=O)CN(C)C3=O)cc2)cc1 [Example 190] ({CH2CO}-[Ala(morpholin-4-yl)][Bip(4'-COOH)][Bip(4'-NHAc)][Sar][2Pal]D[dR]V[Aze]V[2Pal]LCG-NH2; thioether N-13)
< 0.05 µM | CC(C)C[C@@H]1NC(=O)[C@H](Cc2ccccc2)N(C)C(=O)[C@H](C(C)C)NC(=O)[C@@H]2CCCN2C(=O)[C@H](C(C)C)NC(=O)[C@@H](CCCNC(=N)N)NC(=O)[C@H](CC(=O)O)NC(=O)[C@H](Cc2ccc(O)cc2)NC(=O)CN(C)C(=O)[C@H](Cc2ccc(-c3ccccc3)cc2)NC(=O)[C@H](Cc2ccc(-c3ccc(C(=O)O)cc3)cc2)NC(=O)[C@H](CN2CCOCC2)NC(=O)CSC[C@@H](C(=O)NCC(N)=O)NC1=O [Example 220] ({CH2CO}-[Ala(morpholin-4-yl)][Bip(4'-COOH)][Bip][Sar]YD[dR]VPV[NMeF]LCG-NH2; thioether N-13)
0.05 to 0.2 µM | CC[C@H](C)[C@@H]1NC(=O)[C@@H](CCCNC(=N)N)NC(=O)[C@H](CC(=O)O)NC(=O)[C@@H]2CCCN2C(=O)CN(C)C(=O)[C@H](Cc2ccc(-c3ccc(NC(C)=O)cc3)cc2)NC(=O)[C@H](Cc2ccc(-c3ccc(C(=O)O)cc3)cc2)NC(=O)[C@H](C(C)(C)C)NC(=O)CSC[C@@H](C(=O)NCC(N)=O)NC(=O)[C@H](CC(C)C)NC(=O)[C@H](Cc2ccc(O)cc2)NC(=O)[C@H](C(C)C)NC(=O)[C@@H]2CCCN2C1=O [Example 269] ({CH2CO}-[Tle][Bip(4'-COOH)][Bip(4'-NHAc)][Sar]PD[dR]IPVYLCG-NH2; thioether N-13)
